Values quoted from earlier work, collected in patent US20070122507A1, “Histone deacetylase and tumor necrosis factor converting enzyme inhibition” (priority 2005, published 2007).

System: R6/2 transgenic mouse models
Conditions: HD in R6/2 transgenic mouse models

Structure (SMILES): CCCC(=O)[O-].[Na+] [sodium butyrate]
- motor deficits: reduces
- neuropathological effects: reduces
- survival: significantly enhances survival
